Assay results: patent US8217042B2, “Pyridopyrazines and their use as modulators of kinases” (Zentaris GmbH, priority 2005, dated 2012)
Counter-ions that a name gives are not always drawn.

Legend:
Jnk1 + Jnk2 = assay: Cell-free kinase assay (ALPHA technology), Jnk1 + Jnk2; format: biochemical; details: at 10 μM or 100 μM* ATP, recombinant human kinases
Protocol: (§1) The inhibitory effect of the inventive compounds was tested on various human serine/threonine kinases, tyrosine kinases and lipid kinases in enzymatic assays. Recombinant human kinases, for example Erk2, PI3Kalpha, -beta, -gamma, -delta, p38alpha, p38gamma, Jnk1, Jnk2 and others were used, in some cases as full-length kinases, in some cases as truncated fragments—but at least consisting of the functional kinase domains. The commercial kinase proteins (Proqinase, Upstate) were used as recombinant fusion proteins with GST (glutathione S-transferase) tag or His tag. Depending on the substrate type, the different kinase reactions were quantified by means of suitable ALPHA™ beads (PerkinElmer). […]
(§2) The fluorescence was detected the next morning in a Fusion™ alpha instrument (Perkin Elmer).
(§3) The calculation of % inhibition values per substance concentration was done by means of the following formula from the raw data determined in the Fusion™ alpha:
(§4) The controls were each determined 8 times, the substance samples each twice. 0% control contained neither any ATP nor any substrate; the 100% control contained no test substance. The IC50 values were determined with GraphPadPrism.

p38alpha = molecular target: T1, p38alpha (Homo sapiens, UniProt Q16539); assay: Cell-free kinase assay (ALPHA technology), p38alpha; format: biochemical; details: at 10 μM or 100 μM* ATP, recombinant human kinase
T1 construct: in some cases as full-length kinases, in some cases as truncated fragments
Protocol: as §1, §2, §3, §4

PI3Kalpha = molecular target: T2, PI3Kalpha (Homo sapiens, UniProt P42336); assay: Cell-free kinase assay (ALPHA technology), PI3K-ALPHA; format: biochemical; details: 100 μM ATP, recombinant human kinase
T2 construct: in some cases as full-length kinases, in some cases as truncated fragments; purchased Upstate 14-602
Protocol: (§5) The inhibitory effect of the inventive compounds was tested on various human serine/threonine kinases, tyrosine kinases and lipid kinases in enzymatic assays. Recombinant human kinases, for example Erk2, PI3Kalpha, -beta, -gamma, -delta, p38alpha, p38gamma, Jnk1, Jnk2 and others were used, in some cases as full-length kinases, in some cases as truncated fragments—but at least consisting of the functional kinase domains. The commercial kinase proteins (Proqinase, Upstate) were used as recombinant fusion proteins with GST (glutathione S-transferase) tag or His tag. Depending on the substrate type, the different kinase reactions were quantified by means of suitable ALPHA™ beads (PerkinElmer).
(§6) The substrate testing on the Erk assay is described in detail below. Selected test results of the Erk2, PI3Kalpha assays are cited below. […] The kinase reaction was then stopped by adding 10 μl of the ALPHA bead mix (10 μg/ml, #6760617/PerkinElmer), pre-incubated with anti-phospho MBP antibody (320 μM, #05-429/Upstate), in 25 mM Tris, 200 mM NaCl, 100 mM EDTA and 0.3% BSA, and left to stand overnight. • b) PI3K-ALPHAs (e.g. PI3Kalpha): The test substance, 1 ng of PI3Kalpha (#14-602, Upstate), 100 μM ATP and 20 μM PIP2 substrate (#P4508, Echelon) on a 384-well Optiplate (Perkin Elmer) for 1 h in 50 mM Hepes, 50 mM NaCl, 5 mM MgCl2, 0.05% Chaps, 5 mM DTT at pH 7.4. Subsequently, the kinase reaction was stopped by adding the ALPHA bead mix (10 μg/ml, #6760603/PerkinElmer), preincubated with 1 nM GST:Grp1 fusion protein (Upstate) and 15 nM biotinylated PIP3 (#C-39B6/Echelon) in 50 mM Hepes, 50 mM NaCl, 50 mM EDTA and 0.1% BSA, and left to stand overnight.
as §2, §3, §4

Erk2 = molecular target: T3, Erk2; assay: Cell-free kinase assay (ALPHA technology), Erk2-ALPHA; format: biochemical; details: 10 μM ATP, recombinant human kinase
T3 construct: in some cases as full-length kinases, in some cases as truncated fragments; purchased Upstate 14-173
Protocol: as §5, §6, §2, §3, §4

T2 sequence (P42336 whole entry, the tested form may be a part): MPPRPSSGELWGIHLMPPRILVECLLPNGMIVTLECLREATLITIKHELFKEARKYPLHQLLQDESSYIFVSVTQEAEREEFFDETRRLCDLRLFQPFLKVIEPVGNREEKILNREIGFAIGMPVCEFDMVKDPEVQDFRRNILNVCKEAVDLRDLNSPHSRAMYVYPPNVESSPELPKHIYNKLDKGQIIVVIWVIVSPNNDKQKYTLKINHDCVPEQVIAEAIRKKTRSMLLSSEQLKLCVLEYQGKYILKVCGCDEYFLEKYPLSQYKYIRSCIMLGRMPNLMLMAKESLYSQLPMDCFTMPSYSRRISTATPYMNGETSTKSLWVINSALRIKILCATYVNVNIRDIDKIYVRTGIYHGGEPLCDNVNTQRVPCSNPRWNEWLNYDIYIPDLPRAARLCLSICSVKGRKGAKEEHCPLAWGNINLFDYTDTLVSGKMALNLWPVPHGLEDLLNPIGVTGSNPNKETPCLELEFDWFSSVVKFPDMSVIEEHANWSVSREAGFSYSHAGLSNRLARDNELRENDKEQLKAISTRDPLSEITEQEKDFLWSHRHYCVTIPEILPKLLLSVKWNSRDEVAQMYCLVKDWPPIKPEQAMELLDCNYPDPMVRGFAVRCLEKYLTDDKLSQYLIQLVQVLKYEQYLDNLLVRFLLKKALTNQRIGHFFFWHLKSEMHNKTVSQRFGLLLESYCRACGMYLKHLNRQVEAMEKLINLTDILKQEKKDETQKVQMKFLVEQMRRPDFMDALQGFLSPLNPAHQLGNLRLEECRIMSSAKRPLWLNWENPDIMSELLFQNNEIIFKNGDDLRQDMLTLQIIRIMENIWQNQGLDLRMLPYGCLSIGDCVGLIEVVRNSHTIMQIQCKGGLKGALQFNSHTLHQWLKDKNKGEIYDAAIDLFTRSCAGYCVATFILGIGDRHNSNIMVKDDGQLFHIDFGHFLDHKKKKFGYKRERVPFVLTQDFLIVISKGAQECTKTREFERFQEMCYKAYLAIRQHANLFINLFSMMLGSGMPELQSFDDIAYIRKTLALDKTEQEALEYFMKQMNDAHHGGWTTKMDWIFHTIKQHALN
T2 sequence (P27986 whole entry partner, the tested form may be a part): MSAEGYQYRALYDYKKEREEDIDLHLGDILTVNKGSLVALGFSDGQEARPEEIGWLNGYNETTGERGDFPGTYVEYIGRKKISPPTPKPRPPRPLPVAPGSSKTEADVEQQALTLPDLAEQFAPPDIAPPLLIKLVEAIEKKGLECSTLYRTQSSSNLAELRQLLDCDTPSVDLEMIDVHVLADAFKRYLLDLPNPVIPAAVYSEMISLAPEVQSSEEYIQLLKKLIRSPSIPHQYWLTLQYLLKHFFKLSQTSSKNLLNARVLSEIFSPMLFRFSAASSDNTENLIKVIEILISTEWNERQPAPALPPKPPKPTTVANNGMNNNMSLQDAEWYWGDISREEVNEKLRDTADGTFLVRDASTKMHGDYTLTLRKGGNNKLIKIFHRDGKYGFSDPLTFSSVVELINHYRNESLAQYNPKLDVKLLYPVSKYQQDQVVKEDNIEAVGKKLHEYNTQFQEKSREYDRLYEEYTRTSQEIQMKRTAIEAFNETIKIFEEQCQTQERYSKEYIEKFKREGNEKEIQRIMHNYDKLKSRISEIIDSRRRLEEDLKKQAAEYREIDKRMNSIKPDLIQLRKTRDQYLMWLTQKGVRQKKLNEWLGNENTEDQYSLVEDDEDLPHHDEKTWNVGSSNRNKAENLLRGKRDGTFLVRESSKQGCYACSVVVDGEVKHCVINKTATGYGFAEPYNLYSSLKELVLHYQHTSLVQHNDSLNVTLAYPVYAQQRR
T1 sequence (Q16539 whole entry, the tested form may be a part): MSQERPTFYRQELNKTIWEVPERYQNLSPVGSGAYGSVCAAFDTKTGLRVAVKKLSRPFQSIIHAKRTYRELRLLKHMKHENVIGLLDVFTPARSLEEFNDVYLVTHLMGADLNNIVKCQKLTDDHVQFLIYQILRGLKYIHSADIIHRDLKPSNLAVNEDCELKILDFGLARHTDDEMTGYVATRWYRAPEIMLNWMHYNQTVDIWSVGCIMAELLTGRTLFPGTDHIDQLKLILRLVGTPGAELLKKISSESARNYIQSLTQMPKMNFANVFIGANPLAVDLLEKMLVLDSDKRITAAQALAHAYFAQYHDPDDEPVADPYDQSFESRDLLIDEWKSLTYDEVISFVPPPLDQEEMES
T3 sequence (P63085 whole entry, the tested form may be a part): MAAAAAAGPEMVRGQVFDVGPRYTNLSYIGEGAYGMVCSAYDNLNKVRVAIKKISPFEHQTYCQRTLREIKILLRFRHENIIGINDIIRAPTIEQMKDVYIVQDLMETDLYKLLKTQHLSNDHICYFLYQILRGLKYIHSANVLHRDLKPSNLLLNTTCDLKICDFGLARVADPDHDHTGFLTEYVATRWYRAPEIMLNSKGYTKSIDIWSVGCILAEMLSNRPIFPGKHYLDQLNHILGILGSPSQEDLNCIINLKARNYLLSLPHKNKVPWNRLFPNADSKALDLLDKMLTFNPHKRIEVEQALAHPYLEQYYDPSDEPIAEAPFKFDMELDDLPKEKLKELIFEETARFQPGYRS

| Structure (SMILES) | IC50 (Jnk1 + Jnk2) [µM] | melting point | IC50 (PI3Kalpha) [µM] | IC50 (Erk2) [µM] | further results |
| --- | --- | --- | --- | --- | --- |
| C=CCONC(=O)Nc1ccc2ncc(-c3ccccc3)nc2n1 [Compound 8, 1-Allyloxy-3-(3-phenylpyrido[2,3-b]pyrazin-6-yl)urea] | 19.4 |  |  |  | IC50 (p38alpha): > 100 µM |
| CCNC(=O)Nc1ccc2ncc(C#Cc3ccsc3)nc2n1 [Compound 2, 1-Ethyl-3-(3-thiophen-3-ylethynylpyrido[2,3-b]pyrazin-6-yl)urea] |  | 239 to 242 °C (dec.) |  |  |  |
| CCNC(=O)Nc1ccc2ncc(/C=C/COC)nc2n1 [Compound 6, 1-Ethyl-3-[3-((E)-3-methoxypropenyl)pyrido[2,3-b]pyrazin-6-yl]urea] |  |  | 21.3 | 2.4 |  |
| CCNC(=O)Nc1ccc2ncc(/C=C/C3CCCCC3)nc2n1 [Compound 5, 1-[3-((E)-2-Cyclohexylvinyl)pyrido[2,3-b]pyrazin-6-yl]-3-ethylurea] |  | 202 to 204 °C (dec.) |  |  |  |
| CCNC(=O)Nc1ccc2ncc(-c3ccc(OC(=O)N(CC)CC)cc3)nc2n1 [Compound 12, 4-[6-(3-Ethylurea)pyrido[2,3-b]pyrazin-3-yl]phenyl diethylcarbamate] | 0.637 |  |  |  | IC50 (p38alpha): 8.8 µM |
| CCNC(=O)Nc1ccc2ncc(-c3cccc([Si](C)(C)C)c3)nc2n1 |  | 224 to 228 °C |  |  |  |
| CCOP(=O)(CCCCNC(=O)Nc1ccc2ncc(-c3ccc(O)c(OC)c3)nc2n1)OCC [Compound 44, Diethyl (4-{3-[3-(4-hydroxy-3-methoxyphenyl)pyrido[2,3-b]pyrazin-6-yl]urea}butyl)phosphonate] | 8.4 |  | 10.7 | 2.8 |  |
| CCNC(=O)Nc1ccc2ncc(-c3ccc(OC(=O)/C=C/c4ccccc4)cc3)nc2n1 [Compound 13, 4-[6-(3-Ethylurea)pyrido[2,3-b]pyrazin-3-yl]phenyl (E)-3-phenylacrylate] | > 100 | 236 to 238 °C |  | 0.64 |  |
| CCNC(=O)Nc1ccc2ncc(-c3ccc(OC(=O)Oc4ccccc4)cc3)nc2n1 [Compound 11, 4-[6-(3-Ethylurea)pyrido[2,3-b]pyrazin-3-yl]phenyl phenyl carbonate] | > 100 |  |  |  |  |
| CCNC(=O)Nc1ccc2ncc(-c3ccc(OC(=O)N(C)C)cc3)nc2n1 [Compound 19, 4-[6-(3-Ethylurea)pyrido[2,3-b]pyrazin-3-yl]phenyl dimethylcarbamate] | 10.1 | > 230 °C (dec.) | 2.3 | 3.9 |  |
| CONC(=O)Nc1ccc2ncc(-c3ccccc3)nc2n1 [Compound 7, 1-Methoxy-3-(3-phenylpyrido[2,3-b]pyrazin-6-yl)urea] | 11.4 |  |  |  | IC50 (p38alpha): > 100 µM |
| CCNC(=O)Nc1ccc2ncc(C#Cc3ccccc3)nc2n1 [Compound 1, 1-Ethyl-3-(3-phenylethynylpyrido[2,3-b]pyrazin-6-yl)urea] |  | 236 to 238 °C (dec.) |  |  |  |
| CCNC(=O)Nc1ccc2ncc(C#CC3CC3)nc2n1 [Compound 3, 1-(3-Cyclopropylethynylpyrido[2,3-b]pyrazin-6-yl)-3-ethylurea] |  | 227 to 228 °C (dec.) |  |  |  |

Second part, led by results:

| IC50 (Jnk1 + Jnk2) [µM] | melting point | IC50 (PI3Kalpha) [µM] | IC50 (Erk2) [µM] | Structure (SMILES) | further results |
| --- | --- | --- | --- | --- | --- |
| 5 |  | 1.8 | 0.364 | CCNC(=O)Nc1ccc2ncc(-c3ccc(CN4CCOCC4)cc3)nc2n1 [Compound 28, 1-Ethyl-3-[3-(4-morpholin-4-ylmethylphenyl)pyrido[2,3-b]pyrazin-6-yl]urea] | IC50 (p38alpha): > 100 µM |
| > 31.6 | 221 to 224 °C | 7.5 | 19.1 | CCNC(=O)Nc1ccc2ncc(Nc3ccc(CN4CCCCC4)cc3)nc2n1 [Compound 51, 1-Ethyl-3-[3-(4-piperidin-1-ylmethylphenylamino)pyrido[2,3-b]pyrazin-6-yl]urea] | IC50 (p38alpha): > 100 µM |
|  | 207 to 209 °C |  |  | CCNC(=O)Nc1ccc2ncc(CCc3ccc(F)cc3)nc2n1 [Compound 26, 1-Ethyl-3-{3-[2-(4-fluorophenyl)ethyl]pyrido[2,3-b]pyrazin-6-yl}urea] |  |
| 2.5 |  | 4.3 | 0.763 | COCCOC(=O)Oc1ccc(-c2cnc3ccc(NC(=O)NCCCCO)nc3n2)cc1 [Compound 58, 4-{6-[3-(4-Hydroxybutyl)urea]pyrido[2,3-b]pyrazin-3-yl}phenyl 2-methoxyethyl carbonate hydrochloride] |  |
| > 31.6 | 281 to 283 °C | 1.2 | > 100 | CCNC(=O)Nc1ccc2ncc(-c3ccc(NC(=O)OC(C)(C)C)cc3)nc2n1 [Compound 21, tert-Butyl {4-[6-(3-ethylurea)pyrido[2,3-b]pyrazin-3-yl]phenyl}carbamate] |  |
|  | 264 to 267 °C |  |  | CCNC(=O)Nc1ccc2ncc(Nc3ccc(-c4ccsc4)cc3)nc2n1 [Compound 52, 1-Ethyl-3-[3-(4-thiophen-3-ylphenylamino)pyrido[2,3-b]pyrazin-6-yl]urea] |  |
|  | 165 to 168 °C |  |  | COCCOC(=O)Oc1ccc(-c2cnc3ccc(NC(=O)NCCCCO)nc3n2)cc1 (as salt: hydrochloride) [Compound 58, 4-{6-[3-(4-Hydroxybutyl)urea]pyrido[2,3-b]pyrazin-3-yl}phenyl 2-methoxyethyl carbonate hydrochloride] |  |
| > 31.6 | 249 to 251 °C | 1.2 | > 100 | CCNC(=O)Nc1ccc2ncc(-c3ccc(NC(=O)OCCOC)cc3)nc2n1 [Compound 22, 2-Methoxyethyl {4-[6-(3-ethylurea)pyrido[2,3-b]pyrazin-3-yl]phenyl}carbamate] |  |
|  | 246 to 248 °C |  |  | CCNC(=O)Nc1ccc2ncc(Nc3ccc(C4CCCCC4)cc3)nc2n1 [Compound 47, 1-[3-(4-Cyclohexylphenylamino)pyrido[2,3-b]pyrazin-6-yl]-3-ethylurea] |  |
| 24.2 |  | 4.4 | 3.4 | CCNC(=O)Nc1ccc(-c2cnc3ccc(NC(=O)NCC)nc3n2)cn1 [Compound 25, 1-Ethyl-3-{3-[6-(3-ethylurea)pyridin-3-yl]pyrido[2,3-b]pyrazin-6-yl}urea] |  |
| 24.2 |  | 2.3 | 0.396 | CCNC(=O)Nc1ccc2ncc(-c3ccc(OCCOCCOC)cc3)nc2n1 [Compound 29, 1-Ethyl-3-(3-{4-[2-(2-methoxyethoxy)ethoxy]phenyl}pyrido[2,3-b]pyrazin-6-yl)urea] | IC50 (p38alpha): > 100 µM |
| 13.8 | 212 to 215 °C | 0.749 | > 31.6 | CCNC(=O)Nc1ccc2ncc(-c3ccc(NC(=O)COCCOC)cc3)nc2n1 [Compound 30, N-{4-[6-(3-Ethylurea)pyrido[2,3-b]pyrazin-3-yl]phenyl}-2-(2-methoxyethoxy)acetamide] |  |
|  |  |  | 0.812 | CCNC(=O)Nc1ccc2ncc(-c3ccc(OC(=O)OCCOC)cc3)nc2n1 [Compound 55, 4-[6-(3-Ethylurea)pyrido[2,3-b]pyrazin-3-yl]phenyl 2-methoxyethyl carbonate hydrochloride] | IC50 (PI3Kalpha; hydrochloride): 3.6 µM; IC50 (Jnk1 + Jnk2; hydrochloride): 2.9 µM |
|  | 217 to 219 °C |  |  | CCNC(=O)Nc1ccc2ncc(/C=C/c3ccc(F)cc3)nc2n1 [Compound 27, 1-Ethyl-3-{3-[(E)-2-(4-fluorophenyl)vinyl]pyrido[2,3-b]pyrazin-6-yl}urea] |  |
| 0.974 |  | 12.5 | 0.243 | COc1cc(-c2cnc3ccc(NC(=O)NCCCCP(=O)(O)O)nc3n2)ccc1O [Compound 45, (4-{3-[3-(4-Hydroxy-3-methoxyphenyl)pyrido[2,3-b]pyrazin-6-yl]urea}butyl)phosphonic acid] |  |
| 20.4 |  | 0.677 | 16.5 | CCNC(=O)Nc1ccc2ncc(Nc3ccc(NC(C)=O)cc3)nc2n1 [Compound 53, N-{4-[6-(3-Ethylurea)pyrido[2,3-b]pyrazin-3-ylamino]phenyl}acetamide] |  |
